Assay results published in ChEMBL document CHEMBL4483862, “Open-source discovery of chemical leads for next-generation chemoprotective antimalarials” (2018).

Tested on: Plasmodium berghei
Test: Luciferase/luciferin-expressing antifolate-resistant parasites were used to infect a culture of HepG2 cells that were pre-incubated with compounds. Infected hepatocytes emit light due to the luciferase reaction. Assay results are presented as the percent inhibition of light emission compared to control. […]
Assay type: functional
Conditions: sporozoite; for IC90: read-out: LUCIFERASE INFECTION ASSAY - IC90
[1] = read-out: LUCIFERASE INFECTION ASSAY - IC50

SMILES | IC50 [1] [µM] | IC90 [µM] | other results
Oc1ccccc1Nc1nc(NCc2ccccc2)c2ccccc2n1 | 2.58 | > 8.71 | –
O=C(c1cccs1)N1CCc2[nH]nc(-c3ccc(Cl)cc3)c2C1 | > 9.6 | > 9.6 | –
OCc1ccccc1-c1cn2c(-c3ccc(Oc4ccccc4)cc3)cnc2cn1 | 0.646 | 8.14 | –
CN(C)c1ccc(S(N)(=O)=O)cc1NC(=O)Cc1ccc(-c2ccccc2)cc1 | – | > 10 | IC50 (PBLUC_HILL_SLOPE 2.92, PBLUC_R_SQUARED 0.577, read-out: LUCIFERASE INFECTION ASSAY - IC50): 5.33 µM
Cc1cc(NC(=O)c2ccco2)sc1C(=O)Nc1nnc[nH]1 | > 10 | > 10 | –
CCOC(=O)c1c(S(N)(=O)=O)c(C)n(-c2ccccc2)c1C | > 10.2 | > 10.2 | –
Cc1cc(NNC(=O)Nc2cccc(Cl)c2)nc2c1c(C)nn2C | – | > 9.57 | IC50 (HEPG2TOX_HILL_SLOPE 1.19, HEPG2TOX_R_SQUARED 0.796, PBLUC_HILL_SLOPE 1.82, PBLUC_R_SQUARED 0.0269, read-out: LUCIFERASE INFECTION ASSAY - IC50): 5.86 µM
Cc1cc(C)n(CCCNC(=O)Cc2c(C)nc3ncnn3c2C)n1 | > 10 | > 10 | –
CC1(NC(=O)COC(=O)c2cc(Cl)c3c(c2)OCO3)CCS(=O)(=O)C1 (stereo unspecified) | > 10 | > 10 | –
Cc1cc(NC(=O)N2CCN(Cc3sc4ccccc4c3Cl)CC2)no1 | – | 1.17 | IC50 (PBLUC_HILL_SLOPE 1.04, PBLUC_R_SQUARED 0.858, read-out: LUCIFERASE INFECTION ASSAY - IC50): 0.141 µM
CC(=O)c1cccc(-c2cnc3ccc(-c4ccc5c(c4)OCO5)nn23)c1 | – | 7.88 | IC50 (HEPG2TOX_HILL_SLOPE 1.55, HEPG2TOX_R_SQUARED 0.983, PBLUC_HILL_SLOPE 1.3, PBLUC_R_SQUARED 0.851, read-out: LUCIFERASE INFECTION ASSAY - IC50): 1.46 µM
CC(=O)NCCc1ccc(C(=O)CSc2nccn2-c2ccc(Cl)cc2)s1 | > 10 | > 10 | –
Cc1sc(NC(=O)c2ccco2)c(C(c2cccc(C(F)(F)F)c2)N2CC(C)CC(C)C2)c1C (stereo unspecified) | 6.14 | > 10 | –
COc1ccc(NC=C2C(=O)CC(c3cccs3)CC2=O)cc1 (stereo unspecified) | > 10.1 | > 10.1 | –
Cc1ccc(-c2csc3[nH]c(=S)n(Cc4ccccc4)c(=O)c23)cc1 | – | > 10 | IC50 (HEPG2TOX_HILL_SLOPE 0.131, HEPG2TOX_R_SQUARED 0.154, PBLUC_HILL_SLOPE 0.317, PBLUC_R_SQUARED 0.176, read-out: LUCIFERASE INFECTION ASSAY - IC50): 7.53 µM
CC(=O)N(c1ccc(Cl)c(Cl)c1)c1nc(CN2CCCCCC2)cs1 | 4.55 | 9.28 | –
Cc1ccccc1OCCCn1c(CCCNC(=O)c2ccco2)nc2ccccc21 | > 10 | > 10 | –
C=S(=O)(NC(=O)c1ccc(-c2cc(C(F)(F)F)nn2C)s1)c1ccc(C)cc1 (stereo unspecified) | > 7.72 | > 7.72 | –
C=CCN1C(=O)C(O)(c2cnc(N)s2)c2ccccc21 (stereo unspecified) | > 10 | > 10 | –
COC(=O)c1c(NC(C)=O)c2cc(NC(C)CC(C)C)cnc2n1CCC(C)C (stereo unspecified) | > 8.2 | > 8.2 | –
CCCN(CCC)c1ccc(/C=C2\C=c3c(O)cccc3=C2O)cc1 | – | 3.37 | IC50 (HEPG2TOX_HILL_SLOPE 2.7, HEPG2TOX_R_SQUARED 0.839, PBLUC_HILL_SLOPE 2.95, PBLUC_R_SQUARED 0.682, read-out: LUCIFERASE INFECTION ASSAY - IC50): 1.6 µM
O=C1C(=O)N(CCN2CCOCC2)c2ccc(F)cc21 | – | > 11.9 | IC50 (PBLUC_HILL_SLOPE 4.75, PBLUC_R_SQUARED 0.191, read-out: LUCIFERASE INFECTION ASSAY - IC50): 10.9 µM
CC(C)CCn1c(SCC(=O)N2CCc3ccccc3C2)nc2ccccc2c1=O | > 10 | > 10 | –
CCCOc1c(Cl)cc(C(=O)N2CCN(C)c3nc4ccccc4nc32)cc1OCC | > 10 | > 10 | –
CCCCn1c(N)c(N(CCC)C(=O)/C=C/c2cccc3cccnc23)c(=O)[nH]c1=O | – | 3.69 | IC50 (PBLUC_HILL_SLOPE 14.7, PBLUC_R_SQUARED 0.526, read-out: LUCIFERASE INFECTION ASSAY - IC50): 3.18 µM
Cc1oc(-n2cccc2)c(C#N)c1C(=O)Nc1ccn(C)n1 | > 10 | > 10 | –
CN(c1ccccc1)c1nccc2nc(-c3ccncc3)[nH]c12 | – | > 10 | IC50 (HEPG2TOX_HILL_SLOPE 0.766, HEPG2TOX_R_SQUARED 0.225, read-out: LUCIFERASE INFECTION ASSAY - IC50): > 10 µM

SMILES | IC50 [1] [µM] | IC90 [µM] | other results
Cc1cc(C(C)(C)C)cc(C)c1COC(=O)c1cccnc1 | – | > 10 | IC50 (HEPG2TOX_HILL_SLOPE 2.37, HEPG2TOX_R_SQUARED 0.0156, PBLUC_HILL_SLOPE 8.85, PBLUC_R_SQUARED 0.304, read-out: LUCIFERASE INFECTION ASSAY - IC50): 8.03 µM
CC(Oc1ccc(Cl)cc1)C(=O)Nc1sccc1C(N)=O (stereo unspecified) | – | 4.27 | IC50 (PBLUC_HILL_SLOPE 15.8, PBLUC_R_SQUARED 0.448, read-out: LUCIFERASE INFECTION ASSAY - IC50): 3.72 µM
CN(C)c1ccc(-c2cnc3cnc(-c4ccccc4N(C)C)cn23)cc1 | – | 0.0642 | IC50 (HEPG2TOX_HILL_SLOPE 0.323, HEPG2TOX_R_SQUARED 0.566, PBLUC_HILL_SLOPE 1.8, PBLUC_R_SQUARED 0.657, read-out: LUCIFERASE INFECTION ASSAY - IC50): 0.0189 µM
CC(Cc1cccs1)N(Cc1ccc(Cl)cc1)C(=O)c1ccc(Cl)c(S(=O)(=O)N2CCCCC2)c1 (stereo unspecified) | – | > 10 | IC50 (FFLUC_HILL_SLOPE 17, FFLUC_R_SQUARED 0.198, read-out: LUCIFERASE INFECTION ASSAY - IC50): > 10 µM
C=C(C)COc1ccc(-c2onc(C)c2-c2ccc(OC)c(OC)c2)c(O)c1 | 0.64 | 7.35 | –
COc1ccc(-c2ccc3ncc(-c4ccc(NC(C)=O)cc4)n3n2)cc1OC | – | 0.053 | IC50 (HEPG2TOX_HILL_SLOPE 0.646, HEPG2TOX_R_SQUARED 0.97, PBLUC_HILL_SLOPE 3.16, PBLUC_R_SQUARED 0.759, read-out: LUCIFERASE INFECTION ASSAY - IC50): 0.0264 µM
C=CCNc1nc(C(=O)OCc2cc(=O)n3cc(Br)ccc3n2)cs1 | > 10 | > 10 | –
COc1ccc(C(=O)C2CCN(C(=O)c3cnc(C)cn3)CC2)cc1 | > 10 | > 10 | –
c1ccc(C(Sc2ncnc3sccc23)c2ccccc2)cc1 | > 10 | > 10 | –
O=C1C=CC(=O)N1c1ccc(-c2csnn2)cc1 | – | > 12.8 | IC50 (FFLUC_HILL_SLOPE 14.6, FFLUC_R_SQUARED 0.441, read-out: LUCIFERASE INFECTION ASSAY - IC50): > 12.8 µM
C/C(=N\NC(=O)c1ccc(COc2c(Br)cc(C)cc2Br)cc1)c1ccc(O)cc1O | 1.12 | 1.28 | –
O=C(O)CCCNC(=O)CCn1nnc2ccccc2c1=O | > 10.8 | > 10.8 | –
CC1=CC2(C)C3C(=O)N(c4ccc(OC(F)(F)F)cc4)C(=O)C3C1C1C(=O)N(c3ccc(OC(F)(F)F)cc3)C(=O)C12 (stereo unspecified) | – | > 5.55 | IC50 (HEPG2TOX_HILL_SLOPE 2.78, HEPG2TOX_R_SQUARED 0.438, PBLUC_HILL_SLOPE 7.06, PBLUC_R_SQUARED 0.285, read-out: LUCIFERASE INFECTION ASSAY - IC50): 5.08 µM
FC(F)(F)c1cc(/C=N/Nc2c(Cl)cc(C(F)(F)F)cc2Cl)cc(C(F)(F)F)c1 | – | 6.93 | IC50 (HEPG2TOX_HILL_SLOPE 9.76, HEPG2TOX_R_SQUARED 0.862, PBLUC_HILL_SLOPE 9.4, PBLUC_R_SQUARED 0.388, read-out: LUCIFERASE INFECTION ASSAY - IC50): 5.49 µM
Cc1cc(C)n(-c2nc(-c3ccccc3)cc(N3CCCC3)n2)n1 | – | 8.47 | IC50 (PBLUC_HILL_SLOPE 3.13, PBLUC_R_SQUARED 0.498, read-out: LUCIFERASE INFECTION ASSAY - IC50): 4.2 µM
Fc1ccc(COc2ccc(Cl)cc2CNCc2ccccn2)cc1 | – | > 9.25 | IC50 (PBLUC_HILL_SLOPE 3.23, PBLUC_R_SQUARED 0.405, read-out: LUCIFERASE INFECTION ASSAY - IC50): 6.55 µM
Cc1ccc(-c2c(C)sc3[nH]c(CN(C)CC(=O)Nc4cccc(C)c4C)nc(=O)c23)cc1 | > 10 | > 10 | –
CC(Sc1nnc(-c2ccc(C(C)(C)C)cc2)o1)C(=O)Nc1ncc(Cl)cc1Cl (stereo unspecified) | – | 3.61 | IC50 (HEPG2TOX_HILL_SLOPE 7.53, HEPG2TOX_R_SQUARED 0.526, PBLUC_HILL_SLOPE 15.5, PBLUC_R_SQUARED 0.267, read-out: LUCIFERASE INFECTION ASSAY - IC50): 3.13 µM
O=[N+]([O-])c1ccc(OCc2ccccc2)c(Cl)c1 | > 12.5 | > 12.5 | –
O=C(CN1CCC(n2c(=O)[nH]c3ccccc32)CC1)NCCC1=CCCCC1 | > 10 | > 10 | –
COc1ccc(NC(=O)c2ccc(-n3cnc4ccccc43)cc2)cc1Cl | 8.58 | > 10 | –
Cc1nnnn1/C(=C\c1cccc(F)c1)C(=O)NC(C)c1cc2ccccc2o1 (stereo unspecified) | – | 4.08 | IC50 (HEPG2TOX_HILL_SLOPE 3.7, HEPG2TOX_R_SQUARED 0.887, PBLUC_HILL_SLOPE 12.4, PBLUC_R_SQUARED 0.779, read-out: LUCIFERASE INFECTION ASSAY - IC50): 3.42 µM
O=C(NC1CCS(=O)(=O)c2ccccc21)C1CCN(c2ncc(C(F)(F)F)cc2Cl)CC1 (stereo unspecified) | > 10 | > 10 | –
Cn1c(=O)c2cc(NC(=O)CC(C)(C)C)ccc2n1Cc1ccccc1 | > 9.39 | > 9.39 | –
COc1cc(-c2nccc3n[nH]c(C)c23)cc(OC)c1OC | – | > 10 | IC50 (HEPG2TOX_HILL_SLOPE 1.13, HEPG2TOX_R_SQUARED 0.879, read-out: LUCIFERASE INFECTION ASSAY - IC50): > 10 µM
O=C(Cc1csc(Cc2ccccc2)n1)N1CCc2ccc(O)cc2C1 | – | > 10 | IC50 (PBLUC_HILL_SLOPE 3.03, PBLUC_R_SQUARED 0.78, read-out: LUCIFERASE INFECTION ASSAY - IC50): 6.09 µM
